In paper PMC4494927, “Discovery of a small molecule targeting SET-PP2A interaction to overcome BCR-ABLT315I mutation of chronic myeloid leukemia” (Oncotarget, 2015):

Experiments:
Assay in all cases: In vitro kinase assay (Kinase-Glo / ADP-Glo)
Format in all cases: biochemical
AKT1 = AKT1 (Homo sapiens, UniProt P31749); details: TGI1002 1 µM; means of two independent experiments; read-out: Inhibitory effect (%)
Procedure: (§1) All kinase reactions were carried out in 384-well plates. After addition of the compounds, kinase and ATP-substrate were added to the assay plates successively, the assay plates were centrifuged at 1,000 x g for 1 min and incubated for 1 h at 30 °C. Then, Kinase-Glo Plus or ADP-Glo reagent was added to each well. In Kinase-Glo assay, after addition of the reagent for 20 min, the luminescence was measured on an EnVision Multilabel Plate Reader (Perkin-Elmer). In ADP-Glo assay, after addition of the reagent for 40 min, Kinase Detection Reagent was added and incubated for another 30 min at 27 °C, and then the luminescence was measured. Kinase inhibition rates were calculated per manufacturer's instructions.

AKT3 = AKT3 (Homo sapiens, UniProt Q9Y243); details: TGI1002 1 µM; means of two independent experiments; read-out: Inhibitory effect (%)
Procedure: as §1

AMPK (A1/B1/G1) = AMPK (A1/B1/G1) (Homo sapiens, UniProt Q13131); details: TGI1002 1 µM; means of two independent experiments; read-out: Inhibitory effect (%)
Procedure: as §1

AMPK (A2/B1/G1) = AMPK (A2/B1/G1) (Homo sapiens, UniProt P54646); details: TGI1002 1 µM; means of two independent experiments; read-out: Inhibitory effect (%)
Procedure: as §1

AXL = AXL (Homo sapiens, UniProt P30530); details: TGI1002 1 µM; means of two independent experiments; read-out: Inhibitory effect (%)
Procedure: as §1

Aurora A = Aurora A (Homo sapiens, UniProt O14965); details: TGI1002 1 µM; means of two independent experiments; read-out: Inhibitory effect (%)
Procedure: as §1

BRAF(v599E) = BRAF(v599E) (Homo sapiens, UniProt P15056, V600E); details: TGI1002 1 µM; means of two independent experiments; read-out: Inhibitory effect (%)
Procedure: as §1

CAMK1 = CAMK1 (Homo sapiens, UniProt Q14012); details: TGI1002 1 µM; means of two independent experiments; read-out: Inhibitory effect (%)
Procedure: as §1

CDK1/CyclinA2 = CDK1/CyclinA2 (Homo sapiens, UniProt P06493); details: TGI1002 1 µM; means of two independent experiments; read-out: Inhibitory effect (%)
Procedure: as §1

CDK1/CyclinB = CDK1/CyclinB (Homo sapiens, UniProt P06493); details: TGI1002 1 µM; means of two independent experiments; read-out: Inhibitory effect (%)
Procedure: as §1

CDK4/CyclinD1 = CDK4/CyclinD1 (Homo sapiens, UniProt P11802); details: TGI1002 1 µM; means of two independent experiments; read-out: Inhibitory effect (%)
Procedure: as §1

CHK1 = CHK1 (Homo sapiens, UniProt O14757); details: TGI1002 1 µM; means of two independent experiments; read-out: Inhibitory effect (%)
Procedure: as §1

ERK1 = ERK1 (Homo sapiens, UniProt P27361); details: TGI1002 1 µM; means of two independent experiments; read-out: Inhibitory effect (%)
Procedure: as §1

ERK2(MAPK1) = ERK2(MAPK1) (Homo sapiens, UniProt P28482); details: TGI1002 1 µM; means of two independent experiments; read-out: Inhibitory effect (%)
Procedure: as §1

EphB2 = EphB2 (Homo sapiens, UniProt P29323)
Procedure: as §1

FGFR1 = FGFR1 (Homo sapiens, UniProt P11362); details: TGI1002 1 µM; means of two independent experiments; read-out: Inhibitory effect (%)
Procedure: as §1

FGR = FGR (Homo sapiens, UniProt P09769); details: TGI1002 1 µM; means of two independent experiments; read-out: Inhibitory effect (%)
Procedure: as §1

FLT3 = FLT3 (Homo sapiens, UniProt P36888); details: TGI1002 1 µM; means of two independent experiments; read-out: Inhibitory effect (%)
Procedure: as §1

GSK3α = GSK3α (Homo sapiens, UniProt P49840); details: TGI1002 1 µM; means of two independent experiments; read-out: Inhibitory effect (%)
Procedure: as §1

InsR = InsR (Homo sapiens, UniProt P06213); details: TGI1002 1 µM; means of two independent experiments; read-out: Inhibitory effect (%)
Procedure: as §1

JNK1 = JNK1 (Homo sapiens, UniProt P45983); details: TGI1002 1 µM; means of two independent experiments; read-out: Inhibitory effect (%)
Procedure: as §1

KDR = KDR (Homo sapiens, UniProt P35968); details: TGI1002 1 µM; means of two independent experiments; read-out: Inhibitory effect (%)
Procedure: as §1

LCK = LCK (Homo sapiens, UniProt P06239); details: TGI1002 1 µM; means of two independent experiments; read-out: Inhibitory effect (%)
Procedure: as §1

NEK2 = NEK2 (Homo sapiens, UniProt P51955); details: TGI1002 1 µM; means of two independent experiments; read-out: Inhibitory effect (%)
Procedure: as §1

PDGFRα = PDGFRα (Homo sapiens, UniProt P16234)
Procedure: as §1

PI3Kα = PI3Kα (Homo sapiens, UniProt P42336); details: TGI1002 1 µM; means of two independent experiments; read-out: Inhibitory effect (%)
Procedure: as §1

PI3Kβ = PI3Kβ (Homo sapiens, UniProt P42338); details: TGI1002 1 µM; means of two independent experiments; read-out: Inhibitory effect (%)
Procedure: as §1

PI3Kγ = PI3Kγ (Homo sapiens, UniProt P48736); details: TGI1002 1 µM; means of two independent experiments; read-out: Inhibitory effect (%)
Procedure: as §1

PKAcr = PKAcr (Homo sapiens, UniProt P22612); details: TGI1002 1 µM; means of two independent experiments; read-out: Inhibitory effect (%)
Procedure: as §1

PKCγ = PKCγ (Homo sapiens, UniProt P05129); details: TGI1002 1 µM; means of two independent experiments; read-out: Inhibitory effect (%)
Procedure: as §1

PKCξ = PKCξ (Homo sapiens, UniProt Q05513); details: TGI1002 1 µM; means of two independent experiments; read-out: Inhibitory effect (%)
Procedure: as §1

PLK1 = PLK1 (Homo sapiens, UniProt P53350); details: TGI1002 1 µM; means of two independent experiments; read-out: Inhibitory effect (%)
Procedure: as §1

PLK3 = PLK3 (Homo sapiens, UniProt Q9H4B4); details: TGI1002 1 µM; means of two independent experiments; read-out: Inhibitory effect (%)
Procedure: as §1

RET = RET (Homo sapiens, UniProt P07949); details: TGI1002 1 µM; means of two independent experiments; read-out: Inhibitory effect (%)
Procedure: as §1

RON = RON (Homo sapiens, UniProt Q04912); details: TGI1002 1 µM; means of two independent experiments; read-out: Inhibitory effect (%)
Procedure: as §1

SRC = SRC (Homo sapiens, UniProt P12931); details: TGI1002 1 µM; means of two independent experiments; read-out: Inhibitory effect (%)
Procedure: as §1

TrkA = TrkA (Homo sapiens, UniProt P04629); details: TGI1002 1 µM; means of two independent experiments; read-out: Inhibitory effect (%)
Procedure: as §1

c-KIT(V654A) = c-KIT(V654A) (Homo sapiens, UniProt P10721, V654A); details: TGI1002 1 µM; means of two independent experiments; read-out: Inhibitory effect (%)
Procedure: as §1

p38β = p38β (Homo sapiens, UniProt Q15759); details: TGI1002 1 µM; means of two independent experiments; read-out: Inhibitory effect (%)
Procedure: as §1

[1] = TGI1002 1 µM, means of two independent experiments, read-out: Inhibitory effect (%)

Sequence of PDGFRα (P16234 24-1089, species assumed): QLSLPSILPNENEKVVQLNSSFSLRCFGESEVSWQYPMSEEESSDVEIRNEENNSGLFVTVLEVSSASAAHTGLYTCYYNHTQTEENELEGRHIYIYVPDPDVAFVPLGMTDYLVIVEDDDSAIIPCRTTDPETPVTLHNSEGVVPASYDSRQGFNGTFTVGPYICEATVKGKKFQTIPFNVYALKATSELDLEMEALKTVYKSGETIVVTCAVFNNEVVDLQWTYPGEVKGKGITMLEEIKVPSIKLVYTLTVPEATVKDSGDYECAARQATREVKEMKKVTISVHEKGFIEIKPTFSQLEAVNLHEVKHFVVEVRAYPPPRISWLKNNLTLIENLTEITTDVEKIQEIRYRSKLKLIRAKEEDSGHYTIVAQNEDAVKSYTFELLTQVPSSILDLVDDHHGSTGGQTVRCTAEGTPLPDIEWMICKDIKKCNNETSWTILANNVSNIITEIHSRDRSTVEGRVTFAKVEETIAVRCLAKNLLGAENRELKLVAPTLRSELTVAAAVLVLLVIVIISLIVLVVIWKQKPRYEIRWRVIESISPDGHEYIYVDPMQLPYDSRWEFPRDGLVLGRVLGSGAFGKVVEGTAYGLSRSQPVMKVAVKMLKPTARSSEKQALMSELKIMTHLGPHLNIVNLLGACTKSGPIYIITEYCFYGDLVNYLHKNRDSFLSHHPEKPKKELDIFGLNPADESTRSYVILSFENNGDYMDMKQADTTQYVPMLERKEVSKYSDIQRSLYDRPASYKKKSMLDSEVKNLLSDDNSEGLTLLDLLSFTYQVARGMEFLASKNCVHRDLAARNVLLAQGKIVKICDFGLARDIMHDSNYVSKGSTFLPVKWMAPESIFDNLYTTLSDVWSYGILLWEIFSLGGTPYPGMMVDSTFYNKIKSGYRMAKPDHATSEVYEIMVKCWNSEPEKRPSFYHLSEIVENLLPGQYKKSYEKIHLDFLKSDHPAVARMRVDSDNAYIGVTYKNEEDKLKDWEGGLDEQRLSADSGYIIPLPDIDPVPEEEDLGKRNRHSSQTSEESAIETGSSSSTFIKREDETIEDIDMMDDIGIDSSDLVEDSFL
Sequence of EphB2 (P29323 19-1055, species assumed): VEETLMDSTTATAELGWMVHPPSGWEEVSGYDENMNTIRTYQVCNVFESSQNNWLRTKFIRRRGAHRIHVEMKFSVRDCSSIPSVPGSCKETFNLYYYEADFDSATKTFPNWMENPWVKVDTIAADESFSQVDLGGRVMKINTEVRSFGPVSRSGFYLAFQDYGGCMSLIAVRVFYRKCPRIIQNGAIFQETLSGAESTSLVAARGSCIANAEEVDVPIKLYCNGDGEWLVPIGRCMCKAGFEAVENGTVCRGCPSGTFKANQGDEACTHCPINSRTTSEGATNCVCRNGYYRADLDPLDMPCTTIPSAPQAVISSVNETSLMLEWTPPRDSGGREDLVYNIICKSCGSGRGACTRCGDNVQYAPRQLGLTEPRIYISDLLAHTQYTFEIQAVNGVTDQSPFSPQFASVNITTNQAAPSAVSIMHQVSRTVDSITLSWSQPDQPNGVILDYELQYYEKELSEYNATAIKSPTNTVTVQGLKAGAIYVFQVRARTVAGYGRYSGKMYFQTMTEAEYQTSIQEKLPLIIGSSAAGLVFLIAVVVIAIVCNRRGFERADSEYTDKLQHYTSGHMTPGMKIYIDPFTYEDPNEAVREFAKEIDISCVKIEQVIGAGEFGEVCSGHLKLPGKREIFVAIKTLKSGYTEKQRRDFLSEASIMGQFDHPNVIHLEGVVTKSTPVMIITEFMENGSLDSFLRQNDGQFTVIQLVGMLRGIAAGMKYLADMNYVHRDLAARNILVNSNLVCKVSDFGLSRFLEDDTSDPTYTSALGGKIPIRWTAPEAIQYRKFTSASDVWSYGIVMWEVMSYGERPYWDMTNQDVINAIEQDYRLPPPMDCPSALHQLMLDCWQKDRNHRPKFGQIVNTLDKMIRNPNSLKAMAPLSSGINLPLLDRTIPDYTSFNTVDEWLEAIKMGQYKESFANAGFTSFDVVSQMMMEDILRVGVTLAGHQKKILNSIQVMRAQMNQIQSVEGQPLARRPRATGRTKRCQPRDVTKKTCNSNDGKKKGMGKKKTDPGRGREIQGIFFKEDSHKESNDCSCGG
Sequence of ERK1 (P27361 whole entry): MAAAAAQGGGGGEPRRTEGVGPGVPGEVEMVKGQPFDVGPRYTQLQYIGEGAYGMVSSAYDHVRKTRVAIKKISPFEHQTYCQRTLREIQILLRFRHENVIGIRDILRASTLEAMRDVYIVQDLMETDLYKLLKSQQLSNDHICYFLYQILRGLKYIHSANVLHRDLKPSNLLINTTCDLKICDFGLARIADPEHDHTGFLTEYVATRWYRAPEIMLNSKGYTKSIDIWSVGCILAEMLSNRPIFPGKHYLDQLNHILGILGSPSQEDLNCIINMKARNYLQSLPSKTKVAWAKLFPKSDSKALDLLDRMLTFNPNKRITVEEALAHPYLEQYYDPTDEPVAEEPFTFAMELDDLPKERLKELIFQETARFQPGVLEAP
Sequence of JNK1 (P45983 whole entry): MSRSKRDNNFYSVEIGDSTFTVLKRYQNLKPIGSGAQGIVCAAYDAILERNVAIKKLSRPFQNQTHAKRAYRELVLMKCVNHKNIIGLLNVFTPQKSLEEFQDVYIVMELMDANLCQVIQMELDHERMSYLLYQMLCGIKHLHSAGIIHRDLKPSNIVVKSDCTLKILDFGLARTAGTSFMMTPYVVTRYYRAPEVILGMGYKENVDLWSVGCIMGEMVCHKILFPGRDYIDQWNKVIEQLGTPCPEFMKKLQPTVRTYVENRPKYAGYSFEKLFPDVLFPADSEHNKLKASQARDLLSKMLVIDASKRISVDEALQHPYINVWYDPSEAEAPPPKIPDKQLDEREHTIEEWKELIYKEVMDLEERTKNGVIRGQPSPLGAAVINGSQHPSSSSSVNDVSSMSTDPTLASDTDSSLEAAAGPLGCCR
Sequence of PI3Kα (P42336 whole entry): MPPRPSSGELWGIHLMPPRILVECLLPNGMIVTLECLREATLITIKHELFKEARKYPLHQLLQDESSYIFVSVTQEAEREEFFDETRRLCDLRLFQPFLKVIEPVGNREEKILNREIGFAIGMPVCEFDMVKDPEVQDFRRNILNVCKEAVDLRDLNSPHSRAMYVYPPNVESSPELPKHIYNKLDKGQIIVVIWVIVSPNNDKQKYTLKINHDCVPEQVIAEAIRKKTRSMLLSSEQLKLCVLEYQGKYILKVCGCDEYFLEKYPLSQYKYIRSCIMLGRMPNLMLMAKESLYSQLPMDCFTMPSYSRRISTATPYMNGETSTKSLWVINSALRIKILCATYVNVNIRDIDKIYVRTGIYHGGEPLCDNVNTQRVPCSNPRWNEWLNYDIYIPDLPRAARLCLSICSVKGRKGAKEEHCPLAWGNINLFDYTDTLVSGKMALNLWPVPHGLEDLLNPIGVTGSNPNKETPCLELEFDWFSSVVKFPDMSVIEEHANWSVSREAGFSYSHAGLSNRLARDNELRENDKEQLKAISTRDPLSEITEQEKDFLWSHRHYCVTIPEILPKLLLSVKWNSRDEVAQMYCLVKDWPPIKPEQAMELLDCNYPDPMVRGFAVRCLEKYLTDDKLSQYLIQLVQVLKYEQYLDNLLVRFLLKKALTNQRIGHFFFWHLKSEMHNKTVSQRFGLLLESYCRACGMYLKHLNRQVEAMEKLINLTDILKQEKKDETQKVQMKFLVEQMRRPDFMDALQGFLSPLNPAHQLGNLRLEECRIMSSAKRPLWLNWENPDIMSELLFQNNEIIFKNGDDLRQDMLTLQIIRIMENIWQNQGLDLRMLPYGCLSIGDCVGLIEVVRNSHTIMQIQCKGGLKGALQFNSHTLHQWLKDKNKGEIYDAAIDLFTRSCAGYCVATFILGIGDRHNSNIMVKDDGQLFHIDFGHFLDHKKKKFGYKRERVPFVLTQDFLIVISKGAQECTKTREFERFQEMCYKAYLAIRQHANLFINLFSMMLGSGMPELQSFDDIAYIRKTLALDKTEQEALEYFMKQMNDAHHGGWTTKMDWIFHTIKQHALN
Sequence of PI3Kα (P27986 whole entry partner): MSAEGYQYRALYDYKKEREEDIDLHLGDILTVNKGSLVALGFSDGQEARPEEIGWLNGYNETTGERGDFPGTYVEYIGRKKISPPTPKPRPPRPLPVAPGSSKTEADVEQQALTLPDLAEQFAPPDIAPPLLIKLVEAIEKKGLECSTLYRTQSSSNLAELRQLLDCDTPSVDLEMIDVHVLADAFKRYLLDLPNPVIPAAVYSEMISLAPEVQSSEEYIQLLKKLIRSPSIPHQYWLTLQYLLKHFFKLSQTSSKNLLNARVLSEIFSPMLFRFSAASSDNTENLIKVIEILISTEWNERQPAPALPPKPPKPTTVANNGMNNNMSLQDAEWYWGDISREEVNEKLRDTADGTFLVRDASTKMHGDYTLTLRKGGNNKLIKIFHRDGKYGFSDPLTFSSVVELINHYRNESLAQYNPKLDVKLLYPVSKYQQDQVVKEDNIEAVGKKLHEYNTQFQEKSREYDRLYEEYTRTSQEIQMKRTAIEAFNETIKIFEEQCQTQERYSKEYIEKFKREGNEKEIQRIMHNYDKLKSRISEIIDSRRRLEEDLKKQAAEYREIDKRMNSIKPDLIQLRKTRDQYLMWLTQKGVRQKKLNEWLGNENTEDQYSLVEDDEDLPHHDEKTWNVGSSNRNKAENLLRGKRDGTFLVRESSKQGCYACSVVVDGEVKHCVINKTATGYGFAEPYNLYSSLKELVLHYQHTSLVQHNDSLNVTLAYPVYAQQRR
Sequence of p38β (Q15759 whole entry): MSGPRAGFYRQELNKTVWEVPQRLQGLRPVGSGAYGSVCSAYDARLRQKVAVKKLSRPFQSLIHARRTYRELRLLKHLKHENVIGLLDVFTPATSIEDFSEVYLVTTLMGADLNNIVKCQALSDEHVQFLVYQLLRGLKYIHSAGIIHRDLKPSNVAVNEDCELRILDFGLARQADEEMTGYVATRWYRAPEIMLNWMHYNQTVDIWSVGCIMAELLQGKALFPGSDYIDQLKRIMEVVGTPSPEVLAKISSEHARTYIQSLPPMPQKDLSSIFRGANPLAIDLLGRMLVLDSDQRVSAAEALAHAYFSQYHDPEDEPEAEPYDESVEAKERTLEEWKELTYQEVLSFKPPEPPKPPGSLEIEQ

Cc1ccc(NC(=O)c2cccc(CN3CCN(C)CC3)c2)cc1Oc1nccc(-c2cccnc2)n1.Cl [TGI1002, N-(4-methyl-3-((4-(pyridin-3-yl)-pyrimidin-2-yl)oxy)phenyl)-3-((4-methylpiperazin-1-yl)methyl)benzamide hydrochloride]
inhibition at 1 µM (AKT1): 5.07% | inhibition at 1 µM (AKT3): 3.62% | inhibition at 1 µM (AMPK (A1/B1/G1)): 0.19% | inhibition at 1 µM (AMPK (A2/B1/G1)): 2.57% | inhibition at 1 µM (AXL): 3.03% | inhibition at 1 µM (Aurora A): 24.6% | inhibition at 1 µM (BRAF(v599E)): 3.61% | inhibition at 1 µM (CAMK1): 4.93% | inhibition at 1 µM (CDK1/CyclinA2): 5.27% | inhibition at 1 µM (CDK1/CyclinB): 3.24% | inhibition at 1 µM (CDK4/CyclinD1): 7.54% | inhibition at 1 µM (CHK1): 3.61% | inhibition at 1 µM (ERK1): 0.01% | inhibition at 1 µM (ERK2(MAPK1)): 0% | IC50 (EphB2; EphB2 kinase activity): 1270 nM | inhibition at 1 µM (EphB2; [1]): 46.7% | inhibition at 1 µM (FGFR1): 9.71% | inhibition at 1 µM (FGR): 7.53% | inhibition at 1 µM (FLT3): 2.97% | inhibition at 1 µM (GSK3α): 2.6% | inhibition at 1 µM (InsR): 3.7% | inhibition at 1 µM (JNK1): 0.2% | inhibition at 1 µM (KDR): 0.64% | inhibition at 1 µM (LCK): 5.82% | inhibition at 1 µM (NEK2): 1.56% | IC50 (PDGFRα; PDGFRα kinase activity): 3280 nM | inhibition at 1 µM (PDGFRα; [1]): 43.5% | inhibition at 1 µM (PI3Kα): 2.66% | inhibition at 1 µM (PI3Kβ): 0% | inhibition at 1 µM (PI3Kγ): 2.65% | inhibition at 1 µM (PKAcr): 1.45% | inhibition at 1 µM (PKCγ): 0.79% | inhibition at 1 µM (PKCξ): 13.3% | inhibition at 1 µM (PLK1): 1.63% | inhibition at 1 µM (PLK3): 4.71% | inhibition at 1 µM (RET): 12.2% | inhibition at 1 µM (RON): 0.14% | inhibition at 1 µM (SRC): 1.09% | inhibition at 1 µM (TrkA): 3.11% | inhibition at 1 µM (c-KIT(V654A)): 11.7% | inhibition at 1 µM (p38β): 0.2%
